In US20160158251A1, “COMPOSITION FOR PREVENTING OR TREATING MUSCULAR ATROPHY OR PROMOTING MUSCULAR REGENERATION IN SUBJECT COMPRISING SULFONAMIDE COMPOUND AND USE THEREOF” (Samsung Electronics Co., Ltd., priority 2014, published 2016):

What was measured:
[1] = test system: Human skeletal muscle satellite (HSkMS) cells; test: Proliferation of human skeletal muscle satellite cells (cell count by hemocytometer, serum and growth factor starvation); assay type: cell-based; conditions: 24 hours, in comparison with serum starvation (FIG. 1)
Protocol: Human skeletal muscle satellite (HSkMS) cells were prepared to identify whether proliferation of skeletal muscle satellite cells is promoted by sulfonamide compounds.
The seeded HSkMS cells were cultured at 37° C. in a 5% CO2 incubator for 24 hours. Then, 0.1 μM, 1 μM, and 10 μM of each of sulfadiazine (Sigma-Aldrich), sulfamethoxazole (Sigma-Aldrich), sulfadoxine (Sigma-Aldrich), and sulfaguanidine (Sigma-Aldrich), as sulfonamide compounds, were added to the HSkMS cells, and the cells were incubated at 37° C. in a 5% CO2 incubator for 24 hours. After the incubation, the numbers of HSkMS cells were calculated using a hemocytometer.

Atrogin-1 = Atrogin-1 mRNA expression in differentiated C2C12 cells treated with dexamethasone (real time PCR); assay type: cell-based, mouse; conditions: sulfadiazine (1, 10 or 100 μM) 24 hours, then 2 μM dexamethasone 24 hours, vs. dexamethasone only (FIG. 2A)
Protocol: (§1) C2C12 cell lines (mouse gastrocnemius muscle, ATCC® CRL-1772™) were seeded in a 10% FBS/DMEM and incubated at 37° C. in a 5% CO2 incubator. When the cells were 70% confluent, the culture medium was replaced with 2% FBS/DMEM and the cells were cultured for 4 days to completely induce differentiation into muscle cells. C2C12 cell lines are mouse myoblast cell lines obtained by continuous culture of myoblast cells cultured from gastrocnemius muscle of C3H mice.
(§2) When C2C12 cells were completely differentiated into muscle cells, the culture medium was removed therefrom, and 4 ml of a fresh culture medium including 1 μM, 10 μM, or 100 μM of sulfadiazine (Sigma Aldrich) was added thereto, and then, the cells were cultured at 37° C. in a 5% CO2 incubator for 24 hours. […]
(§3) A Trizol reagent (Invitrogen) was added to the collected cells, and total RNA was separated therefrom according to manufacturer's protocols. […] Amounts of mRNA of Atrogin-1 and MuRF-1 were quantified using a real time PCR device (MyiQPCR instrument, BioRad) that is a device measuring SYBR Green. […]
(§4) Values obtained via amplification were normalized to GAPDH gene expression, and relative expression levels of mRNA of Atrogin-1 and MURF-1 were quantified. The quantified relative expression levels (arbitrary unit (AU)) of mRNA of Atrogin-1 and MURF-1 are illustrated in FIGS. 2A and 2B, respectively (*: p<0.05 vs. dexamethasone)

MuRF-1 = MuRF-1 mRNA expression in differentiated C2C12 cells treated with dexamethasone (real time PCR); assay type: cell-based, mouse; conditions: sulfadiazine (1, 10 or 100 μM) 24 hours, then 2 μM dexamethasone 24 hours, vs. dexamethasone only (FIG. 2B)
Protocol: as §1, §2, §3, §4

Compound	proliferation of the HSkMS cells ([1]; 1 μM)	proliferation of the HSkMS cells ([1]; 10 μM)	expression of mRNA of Atrogin-1 (Atrogin-1)	expression of mRNA of MuRF1 (MuRF-1)
Nc1ccc(S(=O)(=O)Nc2ncccn2)cc1 [sulfadiazine]	promoted in all groups, in comparison with serum starvation, except for the groups	promoted in all groups, in comparison with serum starvation, except for the groups	decreased	decreased
NC(N)=NS(=O)(=O)c1ccc(N)cc1 [sulfaguanidine]	–	promoted in all groups, in comparison with serum starvation, except for the groups	–	–
Cc1cc(NS(=O)(=O)c2ccc(N)cc2)no1 [sulfamethoxazole]	–	promoted in all groups, in comparison with serum starvation, except for the groups	–	–
